Experimental data published in ChEMBL document CHEMBL5236598, “Lead Optimization and Avoidance of Metabolic-perturbing Motif Developing Novel Diarylpyrimidines as Potent HIV-1 NNRTIs” (J Med Chem, 2022).

Columns and labels:
[1] = Cmax in ICR mouse at 2 mg/kg, iv measured for 12 hrs by LC-MS/MS analysis; type: ADME, organism-based; parameters: time 12 hrs, dose 2 mg/kg, route iv; conditions: in vivo
[2] = AUC (0 to t) in ICR mouse at 10 mg/kg, po measured for 12 hrs by LC-MS/MS analysis; type: ADME, organism-based; parameters: dose 10 mg/kg, time 12 hrs, route po; conditions: in vivo
[3] = Subacute toxicity in Kunming mouse assessed as appearance of lesions in heart at 50 mg/kg/day, po administered for 2 weeks; type: organism-based; conditions: in vivo, 336 h
[4] = Subacute toxicity in Kunming mouse assessed as anorexia at 50 mg/kg/day, po administered for 2 weeks; type: organism-based; conditions: in vivo, 336 h
[5] = Subacute toxicity in Kunming mouse assessed as abnormalities in kidneys at 50 mg/kg/day, po administered for 2 weeks; type: organism-based; conditions: in vivo, 336 h
[6] = Aqueous solubility of compound at pH 7 at 0.1 to 10 mg; type: physicochemical; conditions: aqueous medium, dose 0.1-10 mg
[7] = Subacute toxicity in Kunming mouse assessed as appearance of lesions in spleen at 50 mg/kg/day, po administered for 2 weeks; type: organism-based; conditions: in vivo, 336 h
[8] = Subacute toxicity in Kunming mouse assessed as appearance of lesions in lungs at 50 mg/kg/day, po administered for 2 weeks; type: organism-based; conditions: in vivo, 336 h
[9] = Subacute toxicity in Kunming mouse assessed as appearance of lesions in kidneys at 50 mg/kg/day, po administered for 2 weeks; type: organism-based; conditions: in vivo, 336 h
[10] = Subacute toxicity in Kunming mouse assessed as lethargy at 50 mg/kg/day, po administered for 2 weeks; type: organism-based; conditions: in vivo, 336 h
[11] = Clearance in ICR mouse at 2 mg/kg, iv measured for 12 hrs by LC-MS/MS analysis; type: ADME, organism-based; conditions: in vivo
[12] = Metabolic stability in human liver microsomes assessed as intrinsic clearance preincubated for 10 mins followed by NADPH regenerating system addition and measured after 2 hrs by LC-MS/MS analysis; type: ADME, Microsome; conditions: time 130 min, read-out: CLH
[13] = Tmax in ICR mouse at 10 mg/kg, po measured for 12 hrs by LC-MS/MS analysis; type: ADME, organism-based; conditions: in vivo
[14] = Aqueous solubility of compound at pH 7.4 at 0.1 to 10 mg; type: physicochemical; conditions: aqueous medium, dose 0.1-10 mg
[15] = Oral bioavailability in ICR mouse at 10 mg/kg measured for 12 hrs by LC-MS/MS analysis; type: ADME, organism-based; conditions: in vivo
[16] = AUC (0 to infinity) in ICR mouse at 10 mg/kg, po measured for 12 hrs by LC-MS/MS analysis; type: ADME, organism-based; parameters: time 12 hrs, dose 10 mg/kg, route po; conditions: in vivo
[17] = Subacute toxicity in Kunming mouse assessed as abnormalities in liver at 50 mg/kg/day, po administered for 2 weeks; type: organism-based; conditions: in vivo, 336 h
[18] = Metabolic stability in human liver microsomes assessed as parent compound remaining preincubated for 10 mins followed by NADPH regenerating system addition and measured after 60 mins by LC-MS/MS analysis; type: ADME, Microsome; conditions: time 70 min, read-out: Stability
[19] = Subacute toxicity in Kunming mouse assessed as clonic convulsion at 50 mg/kg/day, po administered for 2 weeks; type: organism-based; conditions: in vivo, 336 h
[20] = Subacute toxicity in Kunming mouse assessed as appearance of lesions in liver at 50 mg/kg/day, po administered for 2 weeks; type: organism-based; conditions: in vivo, 336 h
[21] = Subacute toxicity in Kunming mouse assessed as abnormalities in lungs at 50 mg/kg/day, po administered for 2 weeks; type: organism-based; conditions: in vivo, 336 h
[22] = Half life in ICR mouse at 2 mg/kg, iv measured for 12 hrs by LC-MS/MS analysis; type: ADME, organism-based; conditions: in vivo
[23] = Metabolic stability in human liver microsomes assessed as half life preincubated for 10 mins followed by NADPH regenerating system addition and measured after 2 hrs by LC-MS/MS analysis; type: ADME, Microsome; conditions: time 130 min
[24] = Aqueous solubility of compound at pH 2 at 0.1 to 10 mg; type: physicochemical; conditions: aqueous medium, dose 0.1-10 mg
[25] = AUC (0 to infinity) in ICR mouse at 2 mg/kg, iv measured for 12 hrs by LC-MS/MS analysis; type: ADME, organism-based; parameters: dose 2 mg/kg, time 12 hrs, route iv; conditions: in vivo
[26] = AUC (0 to t) in ICR mouse at 2 mg/kg, iv measured for 12 hrs by LC-MS/MS analysis; type: ADME, organism-based; parameters: dose 2 mg/kg, time 12 hrs, route iv; conditions: in vivo
[27] = Cmax in ICR mouse at 10 mg/kg, po measured for 12 hrs by LC-MS/MS analysis; type: ADME, organism-based; parameters: time 12 hrs, dose 10 mg/kg, route po; conditions: in vivo
[28] = Subacute toxicity in Kunming mouse assessed as ruffled fur at 50 mg/kg/day, po administered for 2 weeks; type: organism-based; conditions: in vivo, 336 h
[29] = Acute toxicity in Kunming mouse assessed as change in body weight at 2000 mg/kg, po administered for 7 days; type: organism-based; conditions: in vivo, 168 h, time 7 day
[30] = Half life in ICR mouse at 10 mg/kg, po measured for 12 hrs by LC-MS/MS analysis; type: ADME, organism-based; conditions: in vivo
[31] = Subacute toxicity in Kunming mouse assessed as signs of toxicity at 50 mg/kg/day, po administered for 2 weeks; type: organism-based; conditions: in vivo, 336 h
[32] = Subacute toxicity in Kunming mouse assessed as abnormalities in spleen at 50 mg/kg/day, po administered for 2 weeks; type: organism-based; conditions: in vivo, 336 h
[33] = Subacute toxicity in Kunming mouse assessed as abnormalities in heart at 50 mg/kg/day, po administered for 2 weeks; type: organism-based; conditions: in vivo, 336 h
[34] = Tmax in ICR mouse at 2 mg/kg, iv measured for 12 hrs by LC-MS/MS analysis; type: ADME, organism-based; conditions: in vivo
[35] = Acute toxicity in Kunming mouse assessed as abnormal behaviour at 2000 mg/kg, po administered for 7 days; type: organism-based; conditions: in vivo, 168 h, time 7 day

In the case of Cc1cc(/C=C/C#N)cc(C)c1Oc1nc(Nc2ccc(C#N)c(F)c2)nc2c1COC2.Cl, the Cmax [1] is reported as 484 ng/mL, the AUC(0-t) at 12 h [2] is reported as 107 ng·h/mL and the Activity [3] is reported as “Non-Toxic”. For the same molecule, the Activity [4] was “Non-Toxic”, the Activity [5] was “Non-Toxic” and the solubility [6] was 149 µg/mL. For the same molecule, the Activity [7] was “Non-Toxic”, the Activity [8] was “Non-Toxic” and the Activity [9] was “Non-Toxic”. The Activity [10] was “Non-Toxic”, the CL [11] was 1720 mL/min/kg and the microsomal CLint [12] was 87.6 µL/min/mg. The Tmax [13] was 15 min, the solubility [14] was 38.9 µg/mL and the bioavailability [15] was 12.1%. The AUC(0-inf) [16] was 154 ng·h/mL, the Activity [17] was “Non-Toxic” and the remaining at 1 h [18] was 5%. For the same molecule, the Activity [19] was “Non-Toxic”, the Activity [20] was “Non-Toxic” and the Activity [21] was “Non-Toxic”. For the same molecule, the half-life [22] was 85.8 min, the half-life [23] was 11.3 min and the solubility [24] was 349 µg/mL. It also gave an AUC [25] of 255 ng·h/mL, an AUC(0-t) at 12 h [26] of 250 ng·h/mL and a Cmax [27] of 37.5 ng/mL. The Activity [28] was “Non-Toxic”, the Activity [29] was “Non-Toxic” and the half-life [30] was 307 min. For the same molecule, the Activity [31] was “Non-Toxic”, the Activity [32] was “Non-Toxic” and the Activity [33] was “Non-Toxic”. The Tmax [34] was 0 h and the Activity [35] was “Non-Toxic”.
